Results reported in US10329292B2, “Substituted xanthine derivatives” (Boehringer Ingelheim International GmbH, priority 2017, dated 2019).
“Also recorded” adds a separate entry of the source.

Molecular target: T1, hERG channel (Homo sapiens, UniProt Q12809)
T1 construct: expressed in transfected cells
Experiment: Assay B: Determination of hERG-inhibition (patch-clamp)
Type: cell-based
Conditions: compounds of WO2014/143799; patch-clamp per Rast and Guth 2014
Description: Assay B: Determination of hERG-Inhibition
hERG-channel inhibition was determined as described in Rast G, Guth B D, Solubility assessment and on-line exposure confirmation in a patch-clamp assay for hERG (human ether-a-go-go-related gene) potassium channel inhibition, J Pharmacol Toxicol Methods. 2014 September-October; 70(2):182-7.

T1 sequence (Q12809 whole entry): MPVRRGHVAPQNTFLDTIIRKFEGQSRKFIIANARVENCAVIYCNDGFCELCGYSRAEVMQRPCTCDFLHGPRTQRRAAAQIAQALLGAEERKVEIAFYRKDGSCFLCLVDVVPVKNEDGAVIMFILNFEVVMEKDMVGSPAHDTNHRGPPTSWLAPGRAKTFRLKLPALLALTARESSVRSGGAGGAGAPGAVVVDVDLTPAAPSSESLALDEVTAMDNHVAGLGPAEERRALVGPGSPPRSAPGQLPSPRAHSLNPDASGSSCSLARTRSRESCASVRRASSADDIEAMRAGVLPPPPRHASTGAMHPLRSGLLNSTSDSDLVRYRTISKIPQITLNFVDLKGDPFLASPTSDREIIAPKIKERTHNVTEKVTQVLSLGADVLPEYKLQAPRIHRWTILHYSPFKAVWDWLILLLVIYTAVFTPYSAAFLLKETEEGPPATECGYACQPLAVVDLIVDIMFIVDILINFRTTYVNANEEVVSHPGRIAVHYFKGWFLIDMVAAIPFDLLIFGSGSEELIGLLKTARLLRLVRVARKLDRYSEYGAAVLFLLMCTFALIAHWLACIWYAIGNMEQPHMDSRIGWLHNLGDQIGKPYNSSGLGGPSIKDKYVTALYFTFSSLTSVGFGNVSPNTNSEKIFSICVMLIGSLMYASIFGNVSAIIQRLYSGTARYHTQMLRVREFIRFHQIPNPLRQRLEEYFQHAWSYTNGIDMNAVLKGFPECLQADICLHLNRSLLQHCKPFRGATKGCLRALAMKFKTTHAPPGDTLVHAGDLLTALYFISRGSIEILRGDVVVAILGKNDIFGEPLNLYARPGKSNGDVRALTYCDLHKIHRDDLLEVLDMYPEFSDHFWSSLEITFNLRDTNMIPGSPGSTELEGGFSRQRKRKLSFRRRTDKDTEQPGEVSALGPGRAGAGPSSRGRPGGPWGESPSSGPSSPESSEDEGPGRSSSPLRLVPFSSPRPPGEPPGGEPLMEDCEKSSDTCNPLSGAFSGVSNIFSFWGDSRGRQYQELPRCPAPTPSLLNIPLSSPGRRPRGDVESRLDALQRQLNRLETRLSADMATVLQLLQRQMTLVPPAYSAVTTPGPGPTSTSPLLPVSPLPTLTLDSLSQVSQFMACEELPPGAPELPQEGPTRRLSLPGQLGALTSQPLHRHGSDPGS

Structure (SMILES)	IC50	Assay B hERG inhibition
COc1ccccc1-c1nc2c(c(=O)n(CCCO)c(=O)n2C)n1Cc1ccc(F)cc1 [Compound ID 415 in WO2014/143799, reference compound]	> 10 µM	
Cn1c(=O)n(CCCO)c(=O)c2c1nc(Oc1cccc(Cl)c1)n2Cc1cccc(Cl)c1 [Compound ID 260 in WO2014/143799, reference compound]	1.9 µM	low μM range

Same assay, conditions: compounds of the present invention; patch-clamp per Rast and Guth 2014

Structure (SMILES)	IC50
CC(C)n1c(=O)n(CCCO)c(=O)c2c1nc(-c1ccc(F)nc1OCC1CC1)n2Cc1ccc(F)cc1 [Example 7]	> 10 µM
CC(C)n1c(=O)n(CCCO)c(=O)c2c1nc(-c1cc(F)cnc1OCC1CC1)n2Cc1ccccc1 [Example 16]	> 10 µM
CC(C)n1c(=O)n(CCCO)c(=O)c2c1nc(-c1cccnc1OCC1CC1)n2Cc1ccc(Cl)cc1 [Example 5]	> 10 µM
CC(C)n1c(=O)n(CCCO)c(=O)c2c1nc(-c1cccnc1OC[C@@H]1CC1(F)F)n2Cc1ccc(F)cc1 (single isomer, unassigned) [Example 22]	> 10 µM
CC(C)n1c(=O)n(CCCO)c(=O)c2c1nc(-c1cccnc1OCC1CC1)n2Cc1ccc(F)c(F)c1 [Example 3]	> 10 µM
CC(C)n1c(=O)n(CCCO)c(=O)c2c1nc(-c1cccnc1OCC1CC1)n2Cc1ccccc1 [Example 18]	> 10 µM
CC(C)n1c(=O)n(CCCO)c(=O)c2c1nc(-c1cccnc1OC[C@H]1CC1(F)F)n2Cc1ccccc1 [Example 20]	> 10 µM
CC(C)n1c(=O)n(CCCO)c(=O)c2c1nc(-c1cccnc1OC[C@@H]1CC1(F)F)n2Cc1ccccc1 [Example 19]	> 10 µM
Cc1nc(OCC2CC2)c(-c2nc3c(c(=O)n(CCCO)c(=O)n3C(C)C)n2Cc2ccccc2)cc1F [Example 15]	5.8 µM
CC(C)n1c(=O)n(CCCO)c(=O)c2c1nc(-c1cccnc1OCC1CC1)n2Cc1cc(F)cc(F)c1 [Example 1]	> 10 µM
Cc1ccc(Cn2c(-c3cccnc3OCC3CC3)nc3c2c(=O)n(CCCO)c(=O)n3C(C)C)cc1 [Example 4]	> 10 µM
Cc1ccc(-c2nc3c(c(=O)n(CCCO)c(=O)n3C(C)C)n2Cc2ccccc2)c(OCC2CC2)n1 [Example 13]	> 10 µM
CC(C)n1c(=O)n(CCCO)c(=O)c2c1nc(-c1cccnc1OCC1CC1)n2Cc1ccc(C(F)(F)F)cc1 [Example 2]	8.3 µM
Cc1nc(OCC2CC2)c(-c2nc3c(c(=O)n(CCCO)c(=O)n3C(C)C)n2Cc2ccc(F)cc2)cc1F [Example 14]	5.8 µM
CC(C)n1c(=O)n(CC[C@@H](C)O)c(=O)c2c1nc(-c1cccnc1OCC1CC1)n2Cc1ccccc1 [Example 23]	> 10 µM
CC(C)n1c(=O)n(CCCO)c(=O)c2c1nc(-c1ccc(F)nc1OCC1CC1)n2Cc1ccccc1 [Example 10]	> 10 µM
CC(C)n1c(=O)n(CCCO)c(=O)c2c1nc(-c1cccnc1OCC1CC1)n2Cc1ccc(Cl)cn1 [Example 8]	> 10 µM
CC(C)n1c(=O)n(CCCO)c(=O)c2c1nc(-c1cc(F)cnc1OCC1CC1)n2Cc1ccc(F)cc1 [Example 17]	> 10 µM
Cn1c(=O)n(CCCO)c(=O)c2c1nc(-c1nccnc1OCC1CC1)n2Cc1ccc(Cl)cc1 [Example 12]	> 10 µM
CC(C)n1c(=O)n(CCCO)c(=O)c2c1nc(-c1cccnc1OC[C@H]1CC1(F)F)n2Cc1ccc(F)cc1 (single isomer, unassigned) [Example 21]	> 10 µM
CC(C)n1c(=O)n(CCCO)c(=O)c2c1nc(-c1cccnc1OCC1CC1)n2Cc1ccc(F)cc1 [Example 6]	> 10 µM
CC(C)n1c(=O)n(CCCO)c(=O)c2c1nc(-c1nccnc1OCC1CC1)n2Cc1ccccc1 [Example 9]	> 10 µM
CC(C)n1c(=O)n(CC[C@@H](C)O)c(=O)c2c1nc(-c1cccnc1OCC1CC1)n2Cc1ccc(Cl)cc1 [Example 25]	7.6 µM
CC(C)n1c(=O)n(CC[C@@H](C)O)c(=O)c2c1nc(-c1cccnc1OCC1CC1)n2Cc1ccc(F)cc1 [Example 24]	> 10 µM
CCn1c(=O)n(CCCO)c(=O)c2c1nc(-c1nccnc1OCC1CC1)n2Cc1ccccc1 [Example 11]	> 10 µM

Molecular target: T2, TRPC5 channel (Homo sapiens, UniProt Q9UL62)
T2 construct: expressed in transfected cells; host or cells: HEK293 TREx (inducible expression)
T2 sequence (Q9UL62 1-973): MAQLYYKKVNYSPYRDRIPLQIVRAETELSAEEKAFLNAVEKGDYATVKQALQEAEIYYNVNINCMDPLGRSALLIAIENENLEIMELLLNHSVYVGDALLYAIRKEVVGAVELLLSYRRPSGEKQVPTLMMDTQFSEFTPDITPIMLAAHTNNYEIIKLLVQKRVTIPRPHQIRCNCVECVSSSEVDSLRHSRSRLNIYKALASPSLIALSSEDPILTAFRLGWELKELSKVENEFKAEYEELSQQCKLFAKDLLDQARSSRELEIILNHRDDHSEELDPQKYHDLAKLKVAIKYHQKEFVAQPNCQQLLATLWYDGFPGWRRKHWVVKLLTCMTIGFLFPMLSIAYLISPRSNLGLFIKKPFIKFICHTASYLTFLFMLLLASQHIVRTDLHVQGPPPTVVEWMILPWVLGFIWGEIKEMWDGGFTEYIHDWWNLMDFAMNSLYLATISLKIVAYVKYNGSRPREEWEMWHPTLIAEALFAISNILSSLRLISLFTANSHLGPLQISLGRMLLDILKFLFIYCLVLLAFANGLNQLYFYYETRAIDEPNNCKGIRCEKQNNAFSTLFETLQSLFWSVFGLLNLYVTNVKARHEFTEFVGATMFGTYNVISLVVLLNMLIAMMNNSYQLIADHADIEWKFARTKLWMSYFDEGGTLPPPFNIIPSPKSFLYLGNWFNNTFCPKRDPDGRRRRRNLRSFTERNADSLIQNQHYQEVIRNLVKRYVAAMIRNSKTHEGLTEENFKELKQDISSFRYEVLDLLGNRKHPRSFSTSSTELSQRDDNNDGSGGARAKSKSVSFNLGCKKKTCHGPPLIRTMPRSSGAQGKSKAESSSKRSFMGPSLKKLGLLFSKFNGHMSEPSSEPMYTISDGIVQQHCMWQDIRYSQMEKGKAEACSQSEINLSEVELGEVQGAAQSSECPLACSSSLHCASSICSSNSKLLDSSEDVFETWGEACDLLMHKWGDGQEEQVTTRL
Experiment: Assay A: Determination of TRPC5-inhibition (whole-cell patch clamp)
Type: cell-based
Conditions: compounds of WO2014/143799, TRPC5-expressing HEK293 TREx cells, LaCl3-activated current
Source text: Assay A: Determination of TRPC5-Inhibition
Patch clamp experiments permit the detection of currents through the TRPC5 channel in a cell line. In normal whole-cell patch clamp recordings, a glass electrode is brought into contact with a single cell and a high-resistance (gigaohm) seal is established with the cell membrane. The membrane is then ruptured to achieve the whole-cell configuration, permitting control of the voltage of the cell membrane and measurement of currents flowing across the membrane using the amplifier attached to the electrode and resulting in the replacement of cytoplasm with the pipette solution. A perfusion system permits control of the extracellular solution, including the addition of blockers and activators of the current. The current can be activated by including 1.4 μM free Ca2+ in the pipette (intracellular) solution, and 80 μM LaCl3 in the extracellular solution.
TRPC5 cells were induced 20-48 hours, removed from growth plates, and replated at low density (to attain good single-cell physical separation) on glass coverslips for measurement. In some cases, cells were grown in low density overnight on glass coverslips. Patch clamp recordings were made in the whole-cell mode with a holding potential of −40 mV. Every 5 seconds, a voltage ramp was applied from −120 to +100 mV, 400 ms in duration. Currents elicited were quantified at −80 mV and +80 mV. The internal solution consisted of 140 mM cesium aspartate, 10 mM HEDTA, 2 mM CaCl2, 2.27 mM MgCl2 and 10 mM HEPES, pH 7.2, with 1,400 nM calculated free Ca2+. The external solution consisted of 150 mM NaCl, 4.5 mM 15 KCl, 1 mM MgCl2, 2 mM CaCl2, 10 mM HEPES, 10 mM glucose, 1 mM EGTA, pH 7.4. Upon addition of LaCl3, TRPC5 current was induced only in TRPC5-expressing cells and not in parental HEK293 TREx cells. Removal of the LaCh stimulus causes most of the current to go away. Potential blockers were tested for ability to block both inward and outward currents in the continued presence of LaCl3.
IC50 of a compound of the invention was estimated by testing the compound 500 nM. […] Compounds blocking 50% or more at 500 nM are retested at multiple concentrations, and the % block is fitted by standard equations to determine IC50 accurately, using a ⅚ point concentration-response experiment.

Structure (SMILES)	Assay A TRPC5 inhibition	IC50
COc1ccccc1-c1nc2c(c(=O)n(CCCO)c(=O)n2C)n1Cc1ccc(F)cc1 [Compound ID 415 in WO2014/143799, reference compound]	agonism (activation); also recorded: Agonist	
Cn1c(=O)n(CCCO)c(=O)c2c1nc(Oc1cccc(Cl)c1)n2Cc1cccc(Cl)c1 [Compound ID 260 in WO2014/143799, reference compound]	potent TRPC5-inhibition	< 0.01 µM

Same assay, conditions: compounds of the present invention, TRPC5-expressing HEK293 TREx cells, LaCl3-activated current

Structure (SMILES)	IC50
CC(C)n1c(=O)n(CCCO)c(=O)c2c1nc(-c1ccc(F)nc1OCC1CC1)n2Cc1ccc(F)cc1 [Example 7]	< 0.01 µM
CC(C)n1c(=O)n(CCCO)c(=O)c2c1nc(-c1cc(F)cnc1OCC1CC1)n2Cc1ccccc1 [Example 16]	< 0.01 µM
CC(C)n1c(=O)n(CCCO)c(=O)c2c1nc(-c1cccnc1OCC1CC1)n2Cc1ccc(Cl)cc1 [Example 5]	< 0.01 µM
CC(C)n1c(=O)n(CCCO)c(=O)c2c1nc(-c1cccnc1OC[C@@H]1CC1(F)F)n2Cc1ccc(F)cc1 (single isomer, unassigned) [Example 22]	< 0.01 µM
CC(C)n1c(=O)n(CCCO)c(=O)c2c1nc(-c1cccnc1OCC1CC1)n2Cc1ccc(F)c(F)c1 [Example 3]	< 0.01 µM
CC(C)n1c(=O)n(CCCO)c(=O)c2c1nc(-c1cccnc1OCC1CC1)n2Cc1ccccc1 [Example 18]	< 0.01 µM
CC(C)n1c(=O)n(CCCO)c(=O)c2c1nc(-c1cccnc1OC[C@H]1CC1(F)F)n2Cc1ccccc1 [Example 20]	< 0.01 µM
CC(C)n1c(=O)n(CCCO)c(=O)c2c1nc(-c1cccnc1OC[C@@H]1CC1(F)F)n2Cc1ccccc1 [Example 19]	< 0.01 µM
Cc1nc(OCC2CC2)c(-c2nc3c(c(=O)n(CCCO)c(=O)n3C(C)C)n2Cc2ccccc2)cc1F [Example 15]	< 0.01 µM
CC(C)n1c(=O)n(CCCO)c(=O)c2c1nc(-c1cccnc1OCC1CC1)n2Cc1cc(F)cc(F)c1 [Example 1]	< 0.01 µM
Cc1ccc(Cn2c(-c3cccnc3OCC3CC3)nc3c2c(=O)n(CCCO)c(=O)n3C(C)C)cc1 [Example 4]	< 0.01 µM
Cc1ccc(-c2nc3c(c(=O)n(CCCO)c(=O)n3C(C)C)n2Cc2ccccc2)c(OCC2CC2)n1 [Example 13]	< 0.01 µM
CC(C)n1c(=O)n(CCCO)c(=O)c2c1nc(-c1cccnc1OCC1CC1)n2Cc1ccc(C(F)(F)F)cc1 [Example 2]	< 0.01 µM
Cc1nc(OCC2CC2)c(-c2nc3c(c(=O)n(CCCO)c(=O)n3C(C)C)n2Cc2ccc(F)cc2)cc1F [Example 14]	< 0.01 µM
CC(C)n1c(=O)n(CC[C@@H](C)O)c(=O)c2c1nc(-c1cccnc1OCC1CC1)n2Cc1ccccc1 [Example 23]	< 0.01 µM
CC(C)n1c(=O)n(CCCO)c(=O)c2c1nc(-c1ccc(F)nc1OCC1CC1)n2Cc1ccccc1 [Example 10]	< 0.01 µM
CC(C)n1c(=O)n(CCCO)c(=O)c2c1nc(-c1cccnc1OCC1CC1)n2Cc1ccc(Cl)cn1 [Example 8]	< 0.01 µM
CC(C)n1c(=O)n(CCCO)c(=O)c2c1nc(-c1cc(F)cnc1OCC1CC1)n2Cc1ccc(F)cc1 [Example 17]	< 0.01 µM
Cn1c(=O)n(CCCO)c(=O)c2c1nc(-c1nccnc1OCC1CC1)n2Cc1ccc(Cl)cc1 [Example 12]	< 0.01 µM
CC(C)n1c(=O)n(CCCO)c(=O)c2c1nc(-c1cccnc1OC[C@H]1CC1(F)F)n2Cc1ccc(F)cc1 (single isomer, unassigned) [Example 21]	< 0.01 µM
CC(C)n1c(=O)n(CCCO)c(=O)c2c1nc(-c1cccnc1OCC1CC1)n2Cc1ccc(F)cc1 [Example 6]	< 0.01 µM
CC(C)n1c(=O)n(CCCO)c(=O)c2c1nc(-c1nccnc1OCC1CC1)n2Cc1ccccc1 [Example 9]	< 0.01 µM
CC(C)n1c(=O)n(CC[C@@H](C)O)c(=O)c2c1nc(-c1cccnc1OCC1CC1)n2Cc1ccc(Cl)cc1 [Example 25]	< 0.01 µM
CC(C)n1c(=O)n(CC[C@@H](C)O)c(=O)c2c1nc(-c1cccnc1OCC1CC1)n2Cc1ccc(F)cc1 [Example 24]	< 0.01 µM
CCn1c(=O)n(CCCO)c(=O)c2c1nc(-c1nccnc1OCC1CC1)n2Cc1ccccc1 [Example 11]	< 0.01 µM
